The target of experiment [1] is T1, recombinant human ALK5 (TGF-βR1) protein (Homo sapiens, UniProt P36897).
T1 construct: purchased Life Technologies PR9075A
T1 sequence (P36897 34-503): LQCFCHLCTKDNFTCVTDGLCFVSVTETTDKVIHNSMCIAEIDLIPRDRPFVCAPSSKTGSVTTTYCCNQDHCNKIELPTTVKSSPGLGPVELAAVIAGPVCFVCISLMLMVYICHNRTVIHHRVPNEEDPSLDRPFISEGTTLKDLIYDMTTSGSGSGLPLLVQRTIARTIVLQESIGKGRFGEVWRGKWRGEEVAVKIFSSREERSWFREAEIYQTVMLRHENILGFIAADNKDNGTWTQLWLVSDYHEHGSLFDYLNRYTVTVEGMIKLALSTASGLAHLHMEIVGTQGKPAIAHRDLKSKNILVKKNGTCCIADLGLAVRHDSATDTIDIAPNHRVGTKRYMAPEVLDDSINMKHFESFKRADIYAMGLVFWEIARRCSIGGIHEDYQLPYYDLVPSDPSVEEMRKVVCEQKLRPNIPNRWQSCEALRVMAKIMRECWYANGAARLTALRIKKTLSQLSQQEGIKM
The experiment in a line: Biochemical ALK5 (TGF-βR1) assay to measure pKi (LANCE Ultra ULight kinase assay). Conditions: apparent pKi, converted from pIC50 by Cheng-Prusoff. The gist of the method: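 Europium TR-FRET kinase assay: the enzyme is exposed to compound for 60 min at room temperature, and reaction with ATP runs 60 min at 37 °C. Percent inhibition relative to DMSO and SD-208 controls gives pIC50, which is converted to pKi.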
For orientation: Time-resolved FRET reads energy transfer from a long-lived donor to a nearby acceptor.

Experiment [2] has as its system TGF-β-stimulated SMAD3 phosphorylation in BEAS-2B cells. As to the kind of experiment: Cellular ALK5 potency assay, inhibition of TGF-β stimulated pSMAD3 formation in BEAS-2B cells. It is filed as cell-based. The conditions noted are these: Homo sapiens, pSMAD3, TGF-β 10 ng/mL, read-out: BEAS2B pIC50 (converted). The gist of the method:
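Cells were seeded overnight, rinsed into HEPES/BSA-supplemented HBSS, and dosed with serially diluted compound for 1 h at 37 °C, 5% CO2. TGF-β stimulation (10 ng/mL final) followed for 30 min, then lysis and AlphaLISA pSMAD3 measurement; potency reported as pIC50.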

Some results are limits rather than exact numbers.

Regarding `Cc1cccc(-c2nccc(Nc3ccnc(Nc4csc(C(=O)O[C@H]5CC[C@@](C)(N)CC5)c4)n3)n2)n1` [Compound 566, (4-amino-4-methyl-cyclohexyl) 4-[[4-[[2-(6-methyl-2-pyridyl)pyrimidin-4-yl]amino]pyrimidin-2-yl]amino]thiophene-2-carboxylate], in experiment [1], the Ki is 0.0398 to 0.316 nM. Besides, in experiment [2], the IC50 was 25.1 to 158 nM.

Regarding `Cc1cccc(-c2nccc(Nc3ccnc(Nc4ccc(C(=O)O[C@@H]5CC[C@@H](C)NC5)nc4)n3)n2)n1` [Compound 567, [(3R,6R)-6-methyl-3-piperidyl] 5-[[4-[[2-(6-methyl-2-pyridyl)pyrimidin-4-yl]amino]pyrimidin-2-yl]amino]pyridine-2-carboxylate], in experiment [1], the Ki is 0.0398 to 0.316 nM. Besides, the IC50 in experiment [2] was 25.1 to 158 nM.

Regarding `Cc1cccc(-c2nccc(Nc3ccnc(Nc4csc(C(=O)OCCN5CC[C@@H](N)C5)c4)n3)n2)n1` [Compound 568, 2-[(3R)-3-aminopyrrolidin-1-yl]ethyl 4-[[4-[[2-(6-methyl-2-pyridyl)pyrimidin-4-yl]amino]pyrimidin-2-yl]amino]thiophene-2-carboxylate], the Ki in experiment [1] was 0.0398 to 0.316 nM. Also, the IC50 in experiment [2] is 25.1 to 158 nM.

Take `Cc1cccc(-c2nccc(Nc3ccnc(Nc4ccc(CN5CC(C(=O)O)C5)nc4)n3)n2)n1` [Compound 569, 1-[[5-[[4-[[2-(6-methyl-2-pyridyl)pyrimidin-4-yl]amino]pyrimidin-2-yl]amino]-2-pyridyl]methyl]azetidine-3-carboxylic acid]: in experiment [1], the Ki was 0.0398 to 0.316 nM. Moreover, the IC50 in experiment [2] was 200 to 1260 nM.

In the case of `Cc1cccc(-c2nccc(Nc3ccnc(Nc4cncc(C(=O)OC[C@@H]5CCNC5)c4)n3)n2)n1` [Compound 570, [(3R)-pyrrolidin-3-yl]methyl 5-[[4-[[2-(6-methyl-2-pyridyl)pyrimidin-4-yl]amino]pyrimidin-2-yl]amino]pyridine-3-carboxylate], in experiment [1], the Ki was 0.398 to 3.16 nM. Besides, the IC50 in experiment [2] was 25.1 to 158 nM.

On to `Cc1cccc(-c2nccc(Nc3ccnc(Nc4nc(C5=CCNCC5)cs4)n3)n2)n1` [Compound 571, N4-[2-(6-methyl-2-pyridyl)pyrimidin-4-yl]-N2-[4-(1,2,3,6-tetrahydropyridin-4-yl)thiazol-2-yl]pyrimidine-2,4-diamine], for which the Ki in experiment [1] is 0.0398 to 0.316 nM. In addition, the IC50 in experiment [2] was no more than 20 nM.

Take `Cc1cccc(-c2nccc(Nc3ccnc(Nc4csc(C(=O)O[C@H]5CC[C@](C)(N)CC5)c4)n3)n2)n1` [Compound 572, (4-amino-4-methyl-cyclohexyl) 4-[[4-[[2-(6-methyl-2-pyridyl)pyrimidin-4-yl]amino]pyrimidin-2-yl]amino]thiophene-2-carboxylate]: in experiment [1], the Ki was 0.0398 to 0.316 nM. Moreover, in experiment [2], the IC50 was 25.1 to 158 nM.

Turning to `Cc1cccc(-c2nccc(Nc3ccnc(Nc4cncc(CN5CC(C(=O)O[C@H]6CCNC6)C5)c4)n3)n2)n1` [Compound 573, [(3S)-pyrrolidin-3-yl] 1-[[5-[[4-[[2-(6-methyl-2-pyridyl)pyrimidin-4-yl]amino]pyrimidin-2-yl]amino]-3-pyridyl]methyl]azetidine-3-carboxylate], the Ki in experiment [1] was 0.0398 to 0.316 nM. The IC50 in experiment [2] is 25.1 to 158 nM.

On to `Cc1cccc(-c2nccc(Nc3ccnc(Nc4ccc(C(=O)O[C@@H]5CCNC5)cn4)n3)n2)n1` [Compound 574, [(3R)-pyrrolidin-3-yl] 6-[[4-[[2-(6-methyl-2-pyridyl)pyrimidin-4-yl]amino]pyrimidin-2-yl]amino]pyridine-3-carboxylate], for which the Ki in experiment [1] is 3.98 to 31.6 nM. Besides, in experiment [2], the IC50 is 200 to 1260 nM.

Take `Cc1cccc(-c2nccc(Nc3ccnc(Nc4ccc(C(=O)O[C@H]5CCNC5)cn4)n3)n2)n1` [Compound 575, [(3S)-pyrrolidin-3-yl] 6-[[4-[[2-(6-methyl-2-pyridyl)pyrimidin-4-yl]amino]pyrimidin-2-yl]amino]pyridine-3-carboxylate]: the Ki in experiment [1] was 3.98 to 31.6 nM. The IC50 in experiment [2] was 200 to 1260 nM.

Take `CC(=O)N1CC(COC(=O)c2cc(Nc3nccc(Nc4ccnc(-c5cccc(C)n5)n4)n3)cs2)C1` [Compound 576, (1-acetylazetidin-3-yl)methyl 4-[[4-[[2-(6-methyl-2-pyridyl)pyrimidin-4-yl]amino]pyrimidin-2-yl]amino]thiophene-2-carboxylate]: the Ki in experiment [1] is 0.0398 to 0.316 nM. Moreover, in experiment [2], the IC50 is 25.1 to 158 nM.

For the molecule `Cc1cccc(-c2nccc(Nc3ccnc(Nc4ccc(C(=O)OC[C@H]5CCCN5)nc4)n3)n2)n1` [Compound 577, [(2R)-pyrrolidin-2-yl]methyl 5-[[4-[[2-(6-methyl-2-pyridyl)pyrimidin-4-yl]amino]pyrimidin-2-yl]amino]pyridine-2-carboxylate], in experiment [1], the Ki is 0.0398 to 0.316 nM. For the same molecule, in experiment [2], the IC50 is 25.1 to 158 nM.

Turning to `Cc1cccc(-c2nccc(Nc3ccnc(Nc4ncc(C(=O)OC[C@H]5CCCCN5)s4)n3)n2)n1` [Compound 578, [(2R)-2-piperidyl]methyl 2-[[4-[[2-(6-methyl-2-pyridyl)pyrimidin-4-yl]amino]pyrimidin-2-yl]amino]thiazole-5-carboxylate], in experiment [1], the Ki was 3.98 to 31.6 nM. In addition, the IC50 in experiment [2] is 200 to 1260 nM.

Regarding `Cc1cccc(-c2nccc(Nc3ccnc(Nc4cc(C(=O)OC5CNC5)ccn4)n3)n2)n1` [Compound 579, azetidin-3-yl 2-[[4-[[2-(6-methyl-2-pyridyl)pyrimidin-4-yl]amino]pyrimidin-2-yl]amino]pyridine-4-carboxylate], the Ki in experiment [1] is 3.98 to 31.6 nM. Further, the IC50 in experiment [2] is 25.1 to 158 nM.

Consider `Cc1cccc(-c2nccc(Nc3ccnc(Nc4nc(C(=O)OC[C@@H]5CCCNC5)cs4)n3)n2)n1` [Compound 580, [(3R)-3-piperidyl]methyl 2-[[4-[[2-(6-methyl-2-pyridyl)pyrimidin-4-yl]amino]pyrimidin-2-yl]amino]thiazole-4-carboxylate], for which, in experiment [1], the Ki was 0.398 to 3.16 nM. In addition, the IC50 in experiment [2] is 200 to 1260 nM.

With `Cc1cccc(-c2nccc(Nc3ccnc(Nc4ccc(C(=O)OCCN5CCNCC5)cn4)n3)n2)n1` [Compound 581, 2-piperazin-1-ylethyl 6-[[4-[[2-(6-methyl-2-pyridyl)pyrimidin-4-yl]amino]pyrimidin-2-yl]amino]pyridine-3-carboxylate], the Ki in experiment [1] was 3.98 to 31.6 nM. Besides, in experiment [2], the IC50 was 25.1 to 158 nM.

As to `Cc1cccc(-c2nccc(Nc3ccnc(Nc4ccc(C(=O)OC[C@H]5CCNC5)nc4)n3)n2)n1` [Compound 582, [(3S)-pyrrolidin-3-yl]methyl 5-[[4-[[2-(6-methyl-2-pyridyl)pyrimidin-4-yl]amino]pyrimidin-2-yl]amino]pyridine-2-carboxylate], in experiment [1], the Ki was 0.0398 to 0.316 nM. Further, the IC50 in experiment [2] was 25.1 to 158 nM.

Consider `Cc1cccc(-c2nccc(Nc3ccnc(Nc4csc(C(=O)OC[C@H]5CCCN5)c4)n3)n2)n1` [Compound 583, [(2R)-pyrrolidin-2-yl]methyl 4-[[4-[[2-(6-methyl-2-pyridyl)pyrimidin-4-yl]amino]pyrimidin-2-yl]amino]thiophene-2-carboxylate], for which the Ki in experiment [1] was 0.0398 to 0.316 nM. Further, the IC50 in experiment [2] was 25.1 to 158 nM.

For `Cc1cccc(-c2nccc(Nc3ccnc(Nc4ccc(C(=O)OC[C@@H]5CCNC5)nc4)n3)n2)n1` [Compound 584, [(3R)-pyrrolidin-3-yl]methyl 5-[[4-[[2-(6-methyl-2-pyridyl)pyrimidin-4-yl]amino]pyrimidin-2-yl]amino]pyridine-2-carboxylate], the Ki in experiment [1] was 0.0398 to 0.316 nM. The IC50 in experiment [2] is 25.1 to 158 nM.

For the molecule `Cc1cccc(-c2nccc(Nc3ccnc(Nc4csc(C(=O)O)n4)n3)n2)n1` [Compound 585, 4-[[4-[[2-(6-methyl-2-pyridyl)pyrimidin-4-yl]amino]pyrimidin-2-yl]amino]thiazole-2-carboxylic acid], in experiment [1], the Ki is 3.98 to 31.6 nM. For the same molecule, the IC50 in experiment [2] was 200 to 1260 nM.

For the molecule `Cc1cccc(-c2nccc(Nc3ccnc(Nc4nc(C(=O)OC[C@H]5CCCCN5)cs4)n3)n2)n1` [Compound 586, [(2R)-2-piperidyl]methyl 2-[[4-[[2-(6-methyl-2-pyridyl)pyrimidin-4-yl]amino]pyrimidin-2-yl]amino]thiazole-4-carboxylate], the Ki in experiment [1] was 0.398 to 3.16 nM. Moreover, the IC50 in experiment [2] is 25.1 to 158 nM.

For the molecule `Cc1cccc(-c2nccc(Nc3ccnc(Nc4ccc(C(=O)OCC5CCNCC5)nc4)n3)n2)n1` [Compound 587, 4-piperidylmethyl 5-[[4-[[2-(6-methyl-2-pyridyl)pyrimidin-4-yl]amino]pyrimidin-2-yl]amino]pyridine-2-carboxylate], the Ki in experiment [1] is 0.0398 to 0.316 nM. Besides, the IC50 in experiment [2] was 25.1 to 158 nM.

In the case of `Cc1cccc(-c2nccc(Nc3ccnc(Nc4csc(C(=O)OC[C@H]5CCCCN5)c4)n3)n2)n1` [Compound 588, [(2R)-2-piperidyl]methyl 4-[[4-[[2-(6-methyl-2-pyridyl)pyrimidin-4-yl]amino]pyrimidin-2-yl]amino]thiophene-2-carboxylate], the Ki in experiment [1] was 0.0398 to 0.316 nM. In addition, the IC50 in experiment [2] is 25.1 to 158 nM.

For the origin of these results see patent US20230399312A1, “SUBSTITUTED PYRIMIDINES AND METHODS OF USE” (THERAVANCE BIOPHARMA R&D IP, LLC, priority 2020, published 2023).
